Measurements reported in patent US9645147B2, “Recombinant polypeptide construct comprising Plasmodium falciparum circumsporozoite protein HLA class I restricted T-cell epitopes” (priority 2013, dated 2017).
“Also recorded” adds a separate entry of the source. Peptide text beside a SMILES is read from it.

How the values were obtained:
Format in all cases: cell-based, human
CD4+ T cells = test: Intracellular cytokine staining (ICS), IFN-γ, CD4+ population; conditions: for ICS CD4+ T cell recall responses (in words): ICS assays, volunteers of Table 6; for CD4+ % (per cent of CD4+ T cells expressing IFN-γ): ICS, positive >0.03%
Experimental: (§1) Intracellular cytokine staining (ICS) was performed as published previously (Stewart, et al, Infect. Immun., 75: 2283-90 (2007)). Cryopreserved PBMC were thawed, washed, and resuspended at 10×10^6 cells per mL in complete medium. Peptides were used at 10 μg/mL and costimulatory antibodies anti-CD28 and […] (BD Bioscience, San Jose, Calif.) were used at 1 μg/mL. Stimulants were added to cells and incubated at 37° C. with 5% CO2 for 2 hours. Cells were stained with anti-CD3, anti-CD4, anti-CD8, anti-IFN-γ, anti-TNFα, and anti-IL2 and the entire available sample was acquired on a BD LSRII using FACSDiVa (BD Bioscience) software. Data were analyzed using FlowJo Software (Treestar, Inc.). The gating strategy involved progressively measuring total cells; viable cells; lymphocytes; T cells; CD4+ or CD8+ populations; and finally a specific cell type expressing a specific cytokine. Results were transferred to Prism (GraphPad) for graphing and statistical analysis. Data for peptides were corrected for media responses. A positive response was greater than the medium controls+3 standard deviations (0.03%).

[1] = test system: PBMC depleted of T-cell subsets; test: ELISpot IFN-γ after T-cell subset depletion (CD4+ or CD8+ Dynabeads, mock control); conditions: for confirmation as recalling CD8+ T cell responses: ELISpot depletion and ICS studies; for CD4+ depl. sfc/m: after CD4+ T cell depletion; for CD4+ depl. (%) percent change in ELISpot activity: after CD4+ T cell depletion vs control depletion; for CD8+ depl. sfc/m: after CD8+ T cell depletion; for CD8+ depl. (%) percent change in ELISpot activity: after CD8+ T cell depletion vs control depletion; for Control dept. sfc/m: mock (control) depletion; for percent reduction of ELISpot response after CD8+ T cell depletion: text summary over the four volunteers of Table 6
From the text: For characterization of ELISpot IFN-γ-producing cells by T-cell subset depletions PBMC were depleted of T-cell subsets using anti-human CD4+ or anti-CD8+ coated Dynabeads M-450 (Dynal, Great Neck, N.Y.) following the manufacturer's instructions. Mock depletion was done with Dynabeads coated with sheep anti-mouse IgG. Flow cytometry confirmed that T-cell subset depletions were >99% in all experiments. Data are presented as the spot-forming cells/million (sfc/m) and percent decrease or increase in activity after depletion.
To further evaluate the predicted epitopes, ELISpot depletion assays were performed using PBMC from four volunteers stimulated with six predicted and tested epitopes. CD8+ T cell depletion reduced responses to Cp1 and Cp9 by 82%100%.

CD8+ T cells = test: Intracellular cytokine staining (ICS), IFN-γ, CD8+ population; conditions: for ICS CD8+ T cell recall responses (in words): ICS assays, volunteers of Table 6; for CD8+ % (per cent of CD8+ T cells expressing IFN-γ): ICS, positive >0.03%
Experimental: as §1

[2] = test system: PBMC from volunteers immunized with Ad-CA or Ad-C; test: IFN-γ ELISpot assay with cryopreserved PBMC of immunized volunteers; conditions: for Epitope sfc/m: Table 4; for ELISpot response to synthesized epitope (in words): volunteers, positive = p<0.05, at least doubling and at least ten sfc over negative control
Experimental: Previous studies have confirmed that recall-T cell responses, as assayed by ELISpot, are detected using cryopreserved PBMCs although such responses are generally of a lower magnitude than fresh cells (Sedegah, et al., Malar J., 9: 241 (2011)).
The positive control was commercially obtained Class I Peptide Pool Plus (Anaspec, USA). Negative control was media with all supplements but no antigen-specific stimulant.
Throughout the studies, IFN-γ ELISpot assays were conducted as previously described (Sedegah, et al., Malar J., 9: 241 (2011); Wang, et al., PNAS (USA), 98: 10817-22 (2001)). Cryopreserved PBMC were suspended in 100 μL complete medium and stimulated with CSP peptides in 100 μL of complete medium at a final concentration of 10 μg/mL of each peptide tested (Wang, et al., PNAS (USA), 98: 10817-22 (2001)).
Cultures were incubated for 36 hours at 37° C., 5% CO2. Depending on availability of cells, each PBMC sample was assayed in duplicate, triplicate, or quadruplicate and the number of IFN-γ-secreting spot forming cells (sfc) was counted using an automated ELISpot reader (AID, GmbH, Germany). In duplicate assays, all values were used in analysis. […] The mean number of sfcs obtained in negative control wells was subtracted from the value of each test well from the same sample. Negative counts generated by this background subtraction were converted to zero. The mean number of spots of the test sample was then calculated and expressed as spot forming cells/million (sfc/m). A positive response was defined as a significant difference (p=<0.05) between average of the number of spot forming cells (sfc) in test wells and the average of negative control wells (Student's two tailed t-test), and at least a doubling of sfc in test wells relative to negative control wells, and a difference of at least ten sfc between test and negative control wells (Sedegah, et al., PLoS One, 6: e24586 (2011)).

[3] = volunteer 40 (Ad-C), synthesized epitope, first of two assays
[4] = volunteer 40 (Ad-C), synthesized epitope, second assay (second value of the cell)

CC(C)C[C@H](NC(=O)[C@H](C)NC(=O)[C@H](CCC(=O)O)NC(=O)[C@@H](NC(=O)[C@H](Cc1ccccc1)NC(=O)[C@H](CC(C)C)NC(=O)[C@H](Cc1ccccc1)NC(=O)[C@@H](N)CO)C(C)C)C(=O)N[C@@H](Cc1ccccc1)C(=O)O [Epitope E20] (H-SFLFVEALF-OH; N-terminus and C-terminus assumed)
ICS CD4+ T cell recall responses (in words) (CD4+ T cells): negative
CD4+ % (per cent of CD4+ T cells expressing IFN-γ) (CD4+ T cells; V40): 0.04%
CD4+ % (per cent of CD4+ T cells expressing IFN-γ) (CD4+ T cells; V156): 0.01%
confirmation as recalling CD8+ T cell responses [1]: confirmed as recalling CD8+ T cell responses
CD4+ depl. sfc/m ([1]; V40): 226 sfc/m
CD4+ depl. (%) percent change in ELISpot activity ([1]; V40): −11%
CD8+ depl. sfc/m ([1]; V40): 15 sfc/m
CD8+ depl. (%) percent change in ELISpot activity ([1]; V40): −94%
Control dept. sfc/m ([1]; V40): 254 sfc/m
CD4+ depl. sfc/m ([1]; V156): 273 sfc/m
CD4+ depl. (%) percent change in ELISpot activity ([1]; V156): +28%
CD8+ depl. sfc/m ([1]; V156): 29 sfc/m
CD8+ depl. (%) percent change in ELISpot activity ([1]; V156): −86%
Control dept. sfc/m ([1]; V156): 213 sfc/m
ICS CD8+ T cell recall responses (in words) (CD8+ T cells): positive
CD8+ % (per cent of CD8+ T cells expressing IFN-γ) (CD8+ T cells; V40): 0.37%
CD8+ % (per cent of CD8+ T cells expressing IFN-γ) (CD8+ T cells; V156): 0.25%
Epitope sfc/m ([2]; volunteer 37 (Ad-C), synthesized epitope, second assay (second value of the cell)): 53, 53 sfc/m
Epitope sfc/m ([2]; volunteer 37 (Ad-C), synthesized epitope, single value or first of two assays): 53, 53 sfc/m
Epitope sfc/m [2, 3]: 313 sfc/m
Epitope sfc/m [2, 4]: 197 sfc/m
Epitope sfc/m ([2]; volunteer 68 (Ad-C), synthesized 8-10mer epitope): 34 sfc/m
Epitope sfc/m ([2]; volunteer 156 (Ad-CA), synthesized 8-10mer epitope): 240 sfc/m
ELISpot response to synthesized epitope (in words) [2]: moderately positive; also recorded: demonstrated activity

SVSSFLFVEA (listed as Plasmodium falciparum) [Epitope E19, CSP aa 9-18]
CD4+ % (per cent of CD4+ T cells expressing IFN-γ) (CD4+ T cells; V125): 0.02%
confirmation as recalling CD8+ T cell responses [1]: confirmed as recalling CD8+ T cell responses
CD4+ depl. sfc/m ([1]; V125): 17 sfc/m
CD4+ depl. (%) percent change in ELISpot activity ([1]; V125): −78%
CD8+ depl. sfc/m ([1]; V125): 72 sfc/m
CD8+ depl. (%) percent change in ELISpot activity ([1]; V125): −9%
Control dept. sfc/m ([1]; V125): 79 sfc/m
percent reduction of ELISpot response after CD8+ T cell depletion [1]: 9%
ICS CD8+ T cell recall responses (in words) (CD8+ T cells): weakly positive
CD8+ % (per cent of CD8+ T cells expressing IFN-γ) (CD8+ T cells; V125): 0.06%
Epitope sfc/m ([2]; volunteer 125 (Ad-CA), synthesized 8-10mer epitope): 33 sfc/m
ELISpot response to synthesized epitope (in words) [2]: moderately active; also recorded: demonstrated activity

VFNVVNSSI [Epitope E13a]
ICS CD4+ T cell recall responses (in words) (CD4+ T cells): negative
CD4+ % (per cent of CD4+ T cells expressing IFN-γ) (CD4+ T cells; V40): 0.01%
confirmation as recalling CD8+ T cell responses [1]: confirmed as recalling CD8+ T cell responses
CD4+ depl. sfc/m ([1]; V40): 43 sfc/m
CD4+ depl. (%) percent change in ELISpot activity ([1]; V40): −50%
CD8+ depl. sfc/m ([1]; V40): 38 sfc/m
CD8+ depl. (%) percent change in ELISpot activity ([1]; V40): −56%
Control dept. sfc/m ([1]; V40): 86 sfc/m
percent reduction of ELISpot response after CD8+ T cell depletion [1]: 56%
ICS CD8+ T cell recall responses (in words) (CD8+ T cells): positive
CD8+ % (per cent of CD8+ T cells expressing IFN-γ) (CD8+ T cells; V40): 0.12%
Epitope sfc/m [2, 3]: 104 sfc/m
Epitope sfc/m [2, 4]: 72 sfc/m
ELISpot response to synthesized epitope (in words) [2]: demonstrated activity

CC(C)C[C@H](NC(=O)[C@H](C)NC(=O)[C@H](CCC(=O)O)NC(=O)[C@@H](NC(=O)[C@@H](N)Cc1ccccc1)C(C)C)C(=O)N[C@@H](Cc1ccccc1)C(=O)N[C@@H](CCC(N)=O)C(=O)N[C@@H](CCC(=O)O)C(=O)N[C@@H](Cc1ccc(O)cc1)C(=O)O [Epitope E2]
ICS CD4+ T cell recall responses (in words) (CD4+ T cells): negative
CD4+ % (per cent of CD4+ T cells expressing IFN-γ) (CD4+ T cells; V69): 0.00%
confirmation as recalling CD8+ T cell responses [1]: confirmed as recalling CD8+ T cell responses
CD4+ depl. sfc/m ([1]; V69): 254 sfc/m
CD4+ depl. (%) percent change in ELISpot activity ([1]; V69): −15%
CD8+ depl. sfc/m ([1]; V69): 8 sfc/m
CD8+ depl. (%) percent change in ELISpot activity ([1]; V69): −97%
Control dept. sfc/m ([1]; V69): 296 sfc/m
ICS CD8+ T cell recall responses (in words) (CD8+ T cells): positive
CD8+ % (per cent of CD8+ T cells expressing IFN-γ) (CD8+ T cells; V69): 0.48%
Epitope sfc/m ([2]; volunteer 69 (Ad-C), synthesized 8-10mer epitope): 268 sfc/m
Epitope sfc/m ([2]; volunteer 127 (Ad-CA), synthesized 8-10mer epitope): 89 sfc/m
ELISpot response to synthesized epitope (in words) [2]: active; also recorded: demonstrated activity

CC(C)C[C@H](NC(=O)[C@H](C)NC(=O)[C@H](CCC(=O)O)NC(=O)[C@@H](NC(=O)[C@H](Cc1ccccc1)NC(=O)[C@H](CC(C)C)NC(=O)[C@@H](N)Cc1ccccc1)C(C)C)C(=O)N[C@@H](Cc1ccccc1)C(=O)N[C@@H](CCC(N)=O)C(=O)O [Epitope E1a] (H-FLFVEALFQ-OH; N-terminus and C-terminus assumed)
ICS CD4+ T cell recall responses (in words) (CD4+ T cells): negative
CD4+ % (per cent of CD4+ T cells expressing IFN-γ) (CD4+ T cells; V156): 0.03%
confirmation as recalling CD8+ T cell responses [1]: confirmed as recalling CD8+ T cell responses
CD4+ depl. sfc/m ([1]; V156): 215 sfc/m
CD4+ depl. (%) percent change in ELISpot activity ([1]; V156): −12%
CD8+ depl. sfc/m ([1]; V156): 91 sfc/m
CD8+ depl. (%) percent change in ELISpot activity ([1]; V156): −73%
Control dept. sfc/m ([1]; V156): 245 sfc/m
ICS CD8+ T cell recall responses (in words) (CD8+ T cells): positive
CD8+ % (per cent of CD8+ T cells expressing IFN-γ) (CD8+ T cells; V156): 0.34%
ELISpot response to synthesized epitope (in words) [2]: demonstrated activity
